Assay [1] addresses T1, 42 kDa cellular protein, consistent with RPN13 (Homo sapiens, UniProt Q16186).
T1 construct: endogenous in cells; host or cells: SKOV3 or ES2 cell lysates, pre-cleared with streptavidin-coated beads
The assay can be described thus: Up284B competitive labeling assay in SKOV3 or ES2 cell lysates. The conditions noted are these: pre-cleared SKOV3 or ES2 lysates, 45 min at 4° C., then 5 μM Up284B. It counts as binding. As for the experimental part:
Clarified cell lysate (40 ug/sample) in MPER buffer was pretreated with streptavidin-coated magnetic beads for 45 min at 4° C. to deplete non-specific biotinylated proteins in the cell lysate. […] Next, the samples were mixed with Laemmli sample buffer (BioRad) and boiled for 5 min. The proteins were separated using a 4-15% Bio-Rad Mini-PROTEAN SDS-PAGE gel (1 hr at 100 V), and transferred to PVDF membrane overnight at 4° C. (24 V). The membrane was blocked with 5% BSA in PBST for 1 hr at RT and washed for 20 minutes (3× with PBST). Then the membrane was probed with HRP-streptavidin (1:10,000 in PBST) for 1 hr at RT, washed for 30 min (3× with PBST), and developed using HyGLO chemiluminescent detection reagent (Denville) for biotin detection.
Briefly SKOV3 or ES2 cell lysates were first pre-cleared with streptavidin-coated beads to deplete endogenous biotinylated proteins. The pre-cleared lysates were then divided into equal aliquots. […] The lysates were then boiled in gel sample buffer, separated by SDS-PAGE, and transferred to a PVDF membrane.

Assay [2] deals with OVCAR3. In words: MTT cytotoxicity assay, OVCAR3. Format: cell-based. To be noted: OVCAR3, ovarian, 72 hr, read-out: IC50, cell killing. As for the experimental part:
(§1) All cell lines were obtained from the American Type Culture Collection (ATCC) and cultured in the specified medium supplemented with 10% fetal bovine serum, 100 IU/mL penicillin, and 100 μg/mL streptomycin at 37° C. in a humidified 5% CO2/95% air incubator. To assess drug cytotoxicity cells were seeded at 2,500 cells/well (10,000 cells/well for MM lines and primary cells) in 100 μL medium in 96-well plate. […]
(§2) It was examined whether the RPN13 inhibitor, RA475, was cytotoxic for cancer cell lines using the MTT assay.

The subject of assay [3] is PEA1. The assay can be described thus: MTT cytotoxicity assay, PEA1. It counts as cell-based. The conditions noted are these: PEA1, ovarian, 72 hr, read-out: IC50, cell killing. Here is the method: as §1, §2
Assay [4] has as its system MCF7. The assay can be described thus: MTT cytotoxicity assay, MCF7. It counts as cell-based. The conditions noted are these: MCF7, breast, 72 hr, read-out: IC50, cell killing. As for the experimental part:
as §1, §2
A general note: Formazan colour is commonly taken as a measure of viable cells.

Assay [5] relates to human foreskin fibroblasts (HFF). In words: MTT cytotoxicity assay, human foreskin fibroblasts. Format: cell-based. The conditions noted are these: non-transformed human foreskin fibroblasts, 72 hr, highest concentration tested 2.5 μM, read-out: IC50, cell killing. As for the experimental part:
as §1, §2

Assay [6] concerns MDA-MB-468. In words: MTT cytotoxicity assay, MDA-MB-468. Format: cell-based. The conditions noted are these: MDA-MB-468, breast, 72 hr, read-out: IC50, cell killing. As for the experimental part:
as §1, §2

The test system of assay [7] is 4T1 cells stably expressing 4UbFL. The assay can be described thus: 4UbFL proteasome reporter, 4T1 cells. It counts as cell-based. The conditions noted are these: 4 hr treatment, IVIS imager. As for the experimental part: Data are presented as IVIS image (FIG. 8A) and bioluminescence units (FIG. 8B).
4T1 and HCC1806 cells were transfected with 4UbFL plasmid using TransIT2020 transfection reagent for a period of 48 hrs and cells were selected using G418 antibiotic from single colonies. Selected cells were seeded in a 24-well plate (50,000/well) and incubated for 18 h at 37° C. in an incubator. Next, cells were treated with compounds for the period of 4 hr and Luciferin was added (50 uL each well, 7.8 mg/mL) and imaged through an IVIS200 instrument and plotted as a bioluminescent value or fold increase to DMSO control.

Assay [8] concerns cancer cells. In words: MTT cytotoxicity assay, cancer cell lines overall. It counts as cell-based. The conditions noted are these: all solid cancer-derived cell lines tested (Table 1). Here is the method: All cell lines were obtained from the American Type Culture Collection (ATCC) and cultured in the specified medium supplemented with 10% fetal bovine serum, 100 IU/mL penicillin, and 100 μg/mL streptomycin at 37° C. in a humidified 5% CO2/95% air incubator. To assess drug cytotoxicity cells were seeded at 2,500 cells/well (10,000 cells/well for MM lines and primary cells) in 100 μL medium in 96-well plate. The cells were treated with compounds for 48 h, and cells were incubated according to the manufacturer's protocol with the Thiazolyl Blue Tetrazolium Bromide (Sigma, M2128) and A570 measured using a Benchmark Plus microplate spectrophotometer (BIO-RAD).
as §2

Assay [9] concerns TSH1. In words: MTT cytotoxicity assay, TSH1. To be noted: TSH1, thyroid, 72 hr, read-out: IC50, cell killing. Format: cell-based. Here is the method: as §1, §2
Assay [10] deals with PEA2. The assay can be described thus: MTT cytotoxicity assay, PEA2. It counts as cell-based. To be noted: PEA2, ovarian, 72 hr, read-out: IC50, cell killing. Here is the method: as §1, §2
Assay [11] relates to HCT116. The assay can be described thus: MTT cytotoxicity assay, HCT116. It counts as cell-based. To be noted: HCT116, colon, 72 hr, read-out: IC50, cell killing. Here is the method: as §1, §2
Assay [12] concerns PACS. In words: MTT cytotoxicity assay, PACS. Format: cell-based. To be noted: ovarian (mouse), 72 hr, read-out: IC50, cell killing. Here is the method: as §1, §2
Assay [13] has as its system OVCAR3. The assay can be described thus: Flow cytometry analysis of cell death, OVCAR3. To be noted: 1 μM or 2 μM, 16 hr. Format: cell-based. As for the experimental part:
10^5 cells were re-suspended in binding buffer, 5 μL of Annexin V-PE (Apoptosis Detection Kit I (BD Pharmingen) and 5 μL of 7-AAD were then added into the cells, which were then incubated at room temperature for 15 minutes and analyzed by flow cytometry on a FACSCalibur using CellQuest software (Becton Dickinson).
Two ovarian cancer cell lines, ES2 and OVCAR3, were treated with 1 μM or 2 μM RA475 and 16 hr later the cells were harvested and stained with 7-AAD and Annexin V. 7-AAD is a DNA dye that can enter dying cells and Annexin V is commonly used to detect apoptotic cells by its ability to bind to phosphatidylserine, an early marker of apoptosis when it is exposed on the outer leaflet of the plasma membrane.
On the technique in general: Flow cytometry measures light scatter and fluorescence of single cells or particles in a stream.

Assay [14] has as its system DLD-1. The assay can be described thus: MTT cytotoxicity assay, DLD-1. Format: cell-based. The conditions noted are these: DLD-1, colon, 72 hr, read-out: IC50, cell killing. Here is the method: as §1, §2

The structures appear in SMILES notation.

T1 sequence (Q16186 whole entry): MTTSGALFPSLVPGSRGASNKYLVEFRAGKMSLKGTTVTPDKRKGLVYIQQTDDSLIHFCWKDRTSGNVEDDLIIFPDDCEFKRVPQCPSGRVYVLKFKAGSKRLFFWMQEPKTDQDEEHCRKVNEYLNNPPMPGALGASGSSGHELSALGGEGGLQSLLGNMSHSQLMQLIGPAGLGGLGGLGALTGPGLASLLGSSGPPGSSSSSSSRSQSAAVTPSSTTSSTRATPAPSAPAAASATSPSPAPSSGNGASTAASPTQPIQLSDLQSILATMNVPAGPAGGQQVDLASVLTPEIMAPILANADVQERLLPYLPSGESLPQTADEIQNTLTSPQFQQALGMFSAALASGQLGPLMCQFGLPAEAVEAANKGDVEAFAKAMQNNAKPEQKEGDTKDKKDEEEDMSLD

As to `Cl.Cl.N#Cc1ccc(/C=C2/C(=O)/C(=C/c3ccc(C#N)cc3)C23CCN(C(=N)N)CC3)cc1` [RA475], the “competition with binding of Up284B probe to RPN13” value in assay [1] is recorded as “dose-dependently competed”. For the same molecule, the IC50 in assay [2] was 190 nM; in [3], 406 nM; in assay [4], 742 nM; in assay [5], above 2500 nM; in assay [6] it was 292 nM; in assay [9] it was 114 nM. Besides, the IC50 stood at 356 nM in [10], 430 nM in assay [11], 581 nM in assay [12] and 491 nM in [14]. Also, in assay [7], the “bioluminescence of 4UbFL reporter” value is given as “dose-dependent increase”. For the same molecule, the “IC50 across cancer cell lines” value in assay [8] is “Sub micromolar”. Also, in assay [13], the “7-AAD and Annexin V double positive cells” value is recorded as “dose-dependent induction”.

In general, IC50 refers to the concentration needed to halve the response being measured.
